Converted amounts (≈) assume the structure as drawn. Where two headings read alike, the source gives them in different places.
Key:
[1] = system: SMMC-7721 (hepatoma cell); assay: In vitro anti-tumor cellular activity (MTT), SMMC-7721; assay type: cell-based, human; details: for IC50: Homo sapiens, read-out: SMMC-7721 IC50
[2] = system: MKN-45 (human gastric carcinoma cell); assay: In vitro anti-tumor cellular activity (MTT), MKN-45; assay type: cell-based; details: for IC50: Homo sapiens, read-out: MKN-45 IC50
[3] = system: HT-29 (colon cancer cell); assay: In vitro anti-tumor cellular activity (MTT), HT-29; assay type: cell-based, human; details: for IC50: Homo sapiens, read-out: HT-29 IC50
[4] = system: H460 (human lung cancer cell); assay: In vitro anti-tumor cellular activity (MTT), H460; assay type: cell-based; details: for IC50: Homo sapiens, read-out: H460 IC50
[5] = system: U87MG (Human malignant glioblastoma cells); assay: In vitro anti-tumor cellular activity (MTT), U87MG; assay type: cell-based; details: for IC50: Homo sapiens, U-87 MG, read-out: U87MG IC50
[6] = molecular target: T1, c-Met (His-tagged recombinant human Met (Amino acids 974-ends)) (Homo sapiens, UniProt P08581); assay: c-Met kinase assay (ELISA); assay type: biochemical; details: 50 pM c-Met, 5 μM ATP, 20 min
T1 construct: His-tagged recombinant human Met (Amino acids 974-ends); His; host or cells: baculovirus expression
T1 sequence (P08581 974-1390 limits assumed): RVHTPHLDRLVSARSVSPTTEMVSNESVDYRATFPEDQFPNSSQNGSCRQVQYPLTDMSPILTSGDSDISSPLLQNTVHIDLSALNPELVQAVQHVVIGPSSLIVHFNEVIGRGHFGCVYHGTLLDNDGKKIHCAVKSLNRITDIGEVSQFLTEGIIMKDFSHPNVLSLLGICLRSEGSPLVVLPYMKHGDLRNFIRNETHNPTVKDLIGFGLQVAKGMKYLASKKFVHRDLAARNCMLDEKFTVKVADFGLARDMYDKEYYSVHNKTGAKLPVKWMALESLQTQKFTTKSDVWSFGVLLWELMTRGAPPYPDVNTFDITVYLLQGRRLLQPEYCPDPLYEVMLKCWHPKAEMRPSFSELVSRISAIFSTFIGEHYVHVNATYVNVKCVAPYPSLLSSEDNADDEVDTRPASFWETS
Procedure: c-Met kinase activity was measured with an ELISA reader.
The reaction mixture was removed by washing with 0.2 μg/mL conjugated horseradish peroxidase (HRP) monoclonal antibody specific for phosphotyrosine (PY20) detecting phosphorylation of the substrate polymer. 1M phosphoric acid was added to terminate the color, the chromogenic substrate (TMB) was tested by spectrophotometry at 450 nm.

IC50 ([1]; MTT, 72 hours, SMMC-7721) [µg/mL]	IC50 ([3]; MTT, 72 hours, HT-29) [µg/mL]	IC50 ([4]; NCI-H460, MTT, 72 hours, H460) [µg/mL]	IC50 ([5]; MTT, 72 hours, U87MG) [µg/mL]	IC50 [6] [nM]	Compound	SMMC-7721 IC50 ([1]; MTT, 72 hours, SMMC-7721) [µg/mL]	MKN-45 IC50 ([2]; MTT, 72 hours, MKN-45) [µg/mL]	HT-29 IC50 ([3]; MTT, 72 hours, HT-29) [µg/mL]	H460 IC50 ([4]; MTT, 72 hours, H460) [µg/mL]	U87MG IC50 ([5]; MTT, 72 hours, U87MG) [µg/mL]	other results
0.57	0.18	0.04	0.18	62.5	COc1cc2c(Oc3ccc(NC(=O)c4nn(-c5ccccc5C(F)(F)F)c5ccccc5c4=O)cc3F)ccnc2cc1OCCCN1CCCC1.Cl.Cl [Example 1, N-(3-fluoro-4-((6-methoxy-7-(3-(pyrrolidin-1-yl)propoxy)quinolin-4-yl)oxy)phenyl)-1-(2-(trifluoromethyl)phenyl)-4-oxo-1,4-dihydrocinnoline-3-carboxamide dihydrochloride]	–	–	–	–	–	IC50 ([2]; MTT, 72 hours, MKN-45): 0.27 µg/mL
0.63 (≈ 0.888 µM)	0.38 (≈ 0.535 µM)	0.06 (≈ 0.0845 µM)	3.5 (≈ 4.93 µM)	42.3	COc1cc2c(Oc3ccc(NC(=O)c4nn(-c5ccc(F)c(F)c5)c5ccccc5c4=O)cc3F)ccnc2cc1OCCCN1CCCCC1 [Example 11, N-(3-fluoro-4-((6-methoxy-7-(3-(piperidin-1-yl)propoxy)quinolin-4-yl)oxy)phenyl)-1-(3,4-difluorophenyl)-4-oxo-1,4-dihydrocinnoline-3-carboxamide]	–	–	–	–	–	IC50 ([2]; MTT, 72 hours, MKN-45): 0.12 µg/mL (≈ 0.169 µM)
1.6 (≈ 2.04 µM)	0.54 (≈ 0.687 µM)	2.2 (≈ 2.8 µM)	1.2 (≈ 1.53 µM)	1530	COc1cc2c(Oc3ccc(NC(=O)c4nn(-c5ccc(F)cc5Br)c5ccccc5c4=O)cc3F)ccnc2cc1OCCCN1CCN(C)CC1 [Example 19, N-(3-fluoro-4-((6-methoxy-7-(3-(4-methylpiperazin-1-yl)propoxy)quinolin-4-yl)oxy)phenyl)-1-(2-bromo-4-fluorophenyl)-4-oxo-1,4-dihydrocinnoline-3-carboxamide]	–	–	–	–	–	IC50 ([2]; MTT, 72 hours, MKN-45): 0.86 µg/mL (≈ 1.09 µM)
–	–	–	–	–	COc1cc2c(Oc3ccc(NC(=O)c4nn(-c5ccccc5OC(F)(F)F)c5ccccc5c4=O)cc3F)ccnc2cc1OCCCN1CCOCC1 [Example 37, N-(3-fluoro-4-((6-methoxy-7-(3-(morpholin-4-yl)propoxy)quinolin-4-yl)oxy)phenyl)-1-(2-(trifluoromethoxy)phenyl)-4-oxo-1,4-dihydrocinnoline-3-carboxamide]	–	–	–	–	–	IC50 ([1]; SMMC-7721, 72 h): 1.5 µg/mL (≈ 1.97 µM); IC50 ([2]; MKN-45, 72 h): 2.3 µg/mL (≈ 3.03 µM); IC50 ([3]; HT-29, 72 h): 0.9 µg/mL (≈ 1.18 µM); IC50 ([4]; NCI-H460, 72 h): 1.9 µg/mL (≈ 2.5 µM); IC50 ([5]; 72 h): 2.1 µg/mL (≈ 2.76 µM)
–	–	–	–	2070	COc1cc2c(Oc3ccc(NC(=O)c4nn(-c5ccccc5F)c5ccccc5c4=O)cc3F)ccnc2cc1OCCCN1CCCC1 [Example 41, N-(3-fluoro-4-((6-methoxy-7-(3-(pyrrolidin-1-yl)propoxy)quinolin-4-yl)oxy)phenyl)-1-(2-fluorophenyl)-4-oxo-1,4-dihydrocinnoline-3-carboxamide]	–	–	–	–	–	–
1.6 (≈ 2.26 µM)	1.5 (≈ 2.12 µM)	2.7 (≈ 3.82 µM)	2.1 (≈ 2.97 µM)	1410	COc1cc2c(Oc3ccc(NC(=O)c4nn(-c5ccc(F)cc5)c5ccccc5c4=O)cc3F)ccnc2cc1OCCCN1CCN(C)CC1 [Example 42, N-(3-fluoro-4-((6-methoxy-7-(3-(4-methylpiperazin-1-yl)propoxy)quinolin-4-yl)oxy)phenyl)-1-(4-fluorophenyl)-4-oxo-1,4-dihydrocinnoline-3-carboxamide]	–	–	–	–	–	–
–	–	–	–	409	COc1cc2c(Oc3ccc(NC(=O)c4cn(-c5ccc(F)c(F)c5)c5ccccc5c4=O)cc3F)ccnc2cc1OCCCN1CCCCC1 [Example 60, N-(3-fluoro-4-((6-methoxy-7-(3-(piperidin-1-yl)propoxy)quinolin-4-yl)oxy)phenyl)-1-(3,4-difluorophenyl)-4-oxo-1,4-dihydroquinoline-3-carboxamide]	–	–	–	–	–	–
2.1 (≈ 2.97 µM)	2.1 (≈ 2.97 µM)	0.8 (≈ 1.13 µM)	1.4 (≈ 1.98 µM)	–	COc1cc2c(Oc3ccc(NC(=O)c4nn(-c5cccc(F)c5)c5ccccc5c4=O)cc3F)cnnc2cc1OCCCN1CCN(C)CC1 [Example 62, N-(3-fluoro-4-((6-methoxy-7-(3-(4-methylpiperazin-1-yl)propoxy)cinnolin-4-yl)oxy)phenyl)-1-(3-fluorophenyl)-4-oxo-1,4-dihydrocinnoline-3-carboxamide]	–	–	–	–	–	IC50 ([2]; MTT, 72 hours, MKN-45): 3.6 µg/mL (≈ 5.09 µM)
0.9 (≈ 1.33 µM)	1.3 (≈ 1.92 µM)	1.6 (≈ 2.36 µM)	1.8 (≈ 2.65 µM)	1180	COc1cc2c(Oc3ccc(NC(=O)c4nn(-c5ccccc5F)c5ccccc5c4=O)cc3F)cnnc2cc1OCCCN1CCCC1 [Example 63, N-(3-fluoro-4-((6-methoxy-7-(3-(pyrrolidin-1-yl)propoxy)cinnolin-4-yl)oxy)phenyl)-1-(2-fluorophenyl)-4-oxo-1,4-dihydrocinnoline-3-carboxamide]	–	–	–	–	–	–
1.9 (≈ 2.74 µM)	3.2 (≈ 4.62 µM)	1.8 (≈ 2.6 µM)	2.7 (≈ 3.9 µM)	–	COc1cc2c(Oc3ccc(NC(=O)c4nn(-c5cccc(F)c5)c5ccccc5c4=O)cc3F)cnnc2cc1OCCCN1CCCCC1 [Example 64, N-(3-fluoro-4-((6-methoxy-7-(3-(piperidin-1-yl)propoxy)cinnolin-4-yl)oxy)phenyl)-1-(3-fluorophenyl)-4-oxo-1,4-dihydrocinnoline-3-carboxamide]	–	–	–	–	–	IC50 ([2]; MTT, 72 hours, MKN-45): 3.3 µg/mL (≈ 4.76 µM)
–	–	–	–	902	COc1cc2c(Oc3ccc(NC(=O)c4nn(-c5ccc(Br)cc5)c5ccccc5c4=O)cc3F)cnnc2cc1OCCCN1CCCCC1 [Example 65, N-(3-fluoro-4-((6-methoxy-7-(3-(piperidin-1-yl)propoxy)cinnolin-4-yl)oxy)phenyl)-1-(4-bromophenyl)-4-oxo-1,4-dihydrocinnoline-3-carboxamide]	–	–	–	–	–	–
–	–	–	–	–	N-(3-fluoro-4-((6-methoxy-7-(3-(4-methylpiperazin-1-yl)propoxy)quinolin-4-yl)oxy)phenyl)-1-(4-bromophenyl)-4-oxo-1,4-dihydrocinnoline-3-carboxamide [Example 40]	–	–	–	–	–	c-Met IC50 [6]: 0.9 µg/mL
–	–	–	–	–	N-(3-fluoro-4-((6-methoxy-7-(3-(4-methylpiperidin-1-yl)propoxy)quinolin-4-yl)oxy)phenyl)-1-(2-fluorophenyl)-4-oxo-1,4-dihydrocinnoline-3-carboxamide [Example 14]	1.1	0.45	0.31	0.47	0.15	–
–	–	–	–	–	N-(3-fluoro-4-((6-methoxy-7-(3-(4-methylpiperidin-1-yl)propoxy)quinolin-4-yl)oxy)phenyl)-1-(4-fluorophenyl)-4-oxo-1,4-dihydrocinnoline-3-carboxamide [Example 13]	0.67	0.23	0.18	0.081	0.45	–
–	–	–	–	–	N-(3-fluoro-4-((6-methoxy-7-(3-(morpholin-4-yl)propoxy)quinolin-4-yl)oxy)phenyl)-1-(2-f luorophenyl)-4-oxo-1,4-dihydrocinnoline-3-carboxamide [Example 45]	2.3	1.6	0.87	1	2.1	–
–	–	–	–	–	N-(3-fluoro-4-((6-methoxy-7-(3-(piperidin-1-yl)propoxy)quinolin-4-yl)oxy)phenyl)-1-(2-(tr ifluoromethyl)phenyl)-4-oxo-1,4-dihydrocinnoline-3-carboxamide dihydrochloride [Example 5]	0.25	0.2	0.42	0.77	1.2	–
–	–	–	–	–	N-(3-fluoro-4-((6-methoxy-7-(3-(piperidin-1-yl)propoxy)quinolin-4-yl)oxy)phenyl)-1-(2-ch lorophenyl)-4-oxo-1,4-dihydrocinnoline-3-carboxamide dihydrochloride [Example 2]	0.3	0.007	0.19	0.052	0.35	–
–	–	–	–	–	N-(3-fluoro-4-((6-methoxy-7-(3-(pyrrolidin-1-yl)propoxy)quinolin-4-yl)oxy)phenyl)-1-(3,4-difluorophenyl)-4-oxo-1,4-dihydrocinnoline-3-carboxamide [Example 12]	0.67	1.2	0.41	0.91	0.55	–

Compound	IC50 ([1]; MTT, 72 hours, SMMC-7721) [µg/mL]	IC50 ([3]; MTT, 72 hours, HT-29) [µg/mL]	IC50 ([4]; NCI-H460, MTT, 72 hours, H460) [µg/mL]	IC50 ([5]; MTT, 72 hours, U87MG) [µg/mL]	IC50 [6] [nM]	SMMC-7721 IC50 ([1]; MTT, 72 hours, SMMC-7721) [µg/mL]	MKN-45 IC50 ([2]; MTT, 72 hours, MKN-45) [µg/mL]	HT-29 IC50 ([3]; MTT, 72 hours, HT-29) [µg/mL]	H460 IC50 ([4]; MTT, 72 hours, H460) [µg/mL]	U87MG IC50 ([5]; MTT, 72 hours, U87MG) [µg/mL]	other results
COc1cc2c(Oc3ccc(NC(=O)c4nn(-c5ccc(Cl)cc5Cl)c5ccccc5c4=O)cc3F)cnnc2cc1OCCCN1CCCC1 [Example 70, N-(3-fluoro-4-((6-methoxy-7-(3-(pyrrolidin-1-yl)propoxy)cinnolin-4-yl)oxy)phenyl)-1-(2,4-dichlorophenyl)-4-oxo-1,4-dihydrocinnoline-3-carboxamide]	–	–	–	–	959	–	–	–	–	–	IC50 ([1]; SMMC-7721, 72 h): 1.8 µg/mL (≈ 2.47 µM); IC50 ([3]; HT-29, 72 h): 3.2 µg/mL (≈ 4.39 µM); IC50 ([4]; NCI-H460, 72 h): 2.6 µg/mL (≈ 3.56 µM); IC50 ([5]; 72 h): 2.1 µg/mL (≈ 2.88 µM)

Reference: patent US20140364431A1, “Quinoline and cinnoline derivatives and their applications” (Shenyang Pharmaceutical University, priority 2011, published 2014)
